The values below come from patent US10239871B2, “Compounds and methods for regulating integrins” (ADHAERE PHARMACEUTICALS, INC., priority 2012, dated 2019).

The subject of one series is SD rats. As to the kind of experiment: Subacute toxicity assessment in rats. The class given is in vivo, rat. As to the method: LA1 is non-toxic in vivo. A subacute toxicity assessment of LA1 in rats was performed.
LA1 had no effect on the daily food intake or growth.
Next, a subacute toxicity assessment was performed of LA1 in rats in the Comparative Pathology core. […] LA1 had no effect on the daily food intake or growth.

Series [1] relates to hematopoiesis and HSC compartment. In words: Hematopoiesis and HSC compartment after 6 Gy total body irradiation. Type of series: in vivo, mice. The following applies: 1 mg/kg i.p. 7 days from 24 hours post 6 Gy TBI; 4 weeks post TBI. As to the method:
FIGS. 26A-26C show the analysis of hematopoiesis and HSC compartment in LA1 (Red bars), Vehicle control (Blue bars) treated groups of mice at 4 weeks after 6 Gy of total body irradiation (TBI), showing that LA1 is highly radio-protective and a radio-mitigator. […] Mice were exposed to 6 Gy of TBI (at 0.5 Gy/min), and treated intraperitoneally (i.p.) with LA1 (1 mg/kg) or vehicle alone for 7 consecutive days starting at 24 hours post TBI.

In the next series the test system is Cl66 cells. As to the kind of experiment: Cl66 tumor re-growth after irradiation. Type of series: in vivo, mice. Here is the method: Data shown are means±SEM. *, P<0.05; **, P<0.001 (by one-way ANOVA). In this experiment, four groups of tumor-bearing animals were used (n=11/group): 1) Treatment with saline alone (red line), 2) Treatment with leukadherins LA1 alone (orange line), 3) Treatment with a single dose of 20 Gy irradiation (two 10%+10% vertices) alone (black line) and 4) Treatment with a single dose of 20 Gy irradiation and then daily LA1 (at −2 hours) (blue line). The syngeneic murine mammary adenocarcinoma cell line Cl66 (moderately metastatic and is related to the highly metastatic 4T1 cell line) was orthotopically introduced in Balb/c animals, by injecting approximately 5×10^5 Cl66 cells under the left mammary fat pad of WT BALB/c mice (approximately 10 weeks old). The tumor size was measured using calipers every other day until the end of the experiment (approximately 5 weeks). 7-days post implantation, the tumors in all animals became palpable, with an average size of ˜100 mm3. At that time, animals in groups 3 and 4 were treated with irradiation. Animals in group 4 received LA1, starting at 2 hours prior to irradiation. […]
A syngeneic xenograft model was used to address the effects of inflammatory cell recruitment on tumor cell re-growth after radio-therapy. […] The tumor size was measured using calipers every other day until the end of the experiment (approximately 5 weeks). […]

The next series concerns the target CD11b/CD18 (Homo sapiens, UniProt P11215). Particulars: earlier described [55]; cited from earlier work.
Series [2] concerns MAPK signaling (pERK, pJNK) in K562 WT cells. As to the kind of experiment: Western blotting of pERK and pJNK in K562 WT cells. The class given is cell-based, human. Particulars: absence of ligand fibrinogen. As to the method:
K562 WT cells were incubated with LA1, LA2, LA15 (15 μM), or fibrinogen (200 μg) in serum-free medium for 1 hour at 37° C. Cell lysates were resolved on 4-12% NuPAGE Bis-Tris SDS-PAGE gels using MES running buffer and transferred to a polyvinylidene difluoride (PVDF) membrane (ThermoScientific) using established protocols. Membranes were incubated with a 1:1,000 dilution of the anti-phospho-protein antibodies (anti phospho-p44/42 MAPK (pERK1/2) antibody (Thr202/Tyr204, Cell Signaling) or anti-phospho-SAPK/JNK (pJNK) antibody (Thr183/Tyr185, Cell Signaling #81E11)), or with an antibody against either total ERK1/2 (p44/42 MARK (Erk1/2), Cell Signaling #137F5) or total JNK (SAPK/JNK, Cell Signaling #56G8) and developed according to the manufacturer's instructions (ThermoScientific). Proteins were quantified by densitometry using ImageJ software. […]
Second, an effect of integrin ligation, macro clustering and redistribution in the plasma membrane is the triggering of outside-in intracellular signaling in cells via various MAPKs. […] In FIGS. 6A-6B, immunoblot results from two independent experiments were quantified using ImageJ software and ratio of phosphorylated protein to total protein was determined. Histograms showing this quantitation for each set are also shown. […] In FIGS. 6C-6D, immunoblot results from two independent experiments were quantified and are also shown, as in 6A and 6B.
A general note: Immunoblotting shows a protein as a band on a membrane.

Series [3] has as its system Human Umbilical Vein Endothelial Cells. In words: TUNEL assay, HUVEC co-cultured with LA1-activated neutrophils. The following applies: LA1-mediated adhesion of neutrophils. Type of series: cell-based. The source says:
In support of this argument, neither we nor others studying knock-in animals that express constitutively active mutants of integrins LFA-1 [54, 55] and […]4[…]7 [56] have observed any signs of vascular injury in any experimental model. FIGS. 22A-22E show an absence of apoptosis in co-cultures of LA-1 activated leukocytes and HUVEC cells.

Each structure is given as a SMILES string.

Take `O=C(O)c1ccc(-c2ccc(/C=C3\SC(=S)N(Cc4ccccc4)C3=O)o2)cc1` [LA1]: in the series on SD rats (IP ~3 mg/kg/d for 21 d), the Haematological constants entry was “on par with those of controls”; the “biochemical measurements in serum and liver (enzyme levels, serum constituents)” value was “no appreciable changes”; the “daily food intake or growth” value is recorded as “no effect”. In addition, the “overt toxicity or mortality” value in the series with SD rats (IP ~3 mg/kg/d for 21 d, SD rats of both sexes) is reported as “failed to induce any overt toxicity or mortality”. The “relative organ weights of vital organs and their histoarchitecture” value in the series on SD rats (autopsy, lung, heart, spleen, liver, kidney) is on record as “no significant alterations”. In addition, the “HSC analysis (BM cellularity, frequency of LKS+ BM cells and LKS+ CD150+ CD48− BM cells)” value in series [1] is “significant improvement”. Also, the “rate of tumor growth, LA1 alone without irradiation” value in the series with Cl66 cells (similar to irradiation alone) is “reduced rate of tumor growth”. The “rate of tumor growth post-irradiation” value with Cl66 cells (single dose 20 Gy plus LA1 from -2 hours) is given as “significant reduction in the rate of tumor growth post-irradiation”. Moreover, at CD11b/CD18, the “affinity for CD11b/CD18” value is listed as “high-affinity”. Besides, the “phosphorylated ERK (pERK) and phosphorylated JNK (pJNK)” value in series [2] is given as “did not induce any significant pERK or pJNK”. Also, the “HUVEC apoptosis (TUNEL)” value in series [3] is listed as “does not increase HUVEC apoptosis”.
